Data as given in patent US10815460B2, “Three-dimensional differentiation of epiblast spheroids to kidney organoids models stage-specific epithelial physiology, morphogenesis, and disease” (THE BRIGHAM AND WOMEN'S HOSPITAL, INC., priority 2015, dated 2020).
Entries after “also recorded” stand apart in the source; their conditions may differ.

What was measured:
Format in all cases: cell-based, human
hPSC spheroids = test: hPSC spheroid cavity formation (lumenogenesis) in 3D sandwich culture
Source text: Cell lines included H9 (WA09), BJ, HDFn, hLR5, hfib2-iPS4, and hfib2-iPS5 (human) and J1, R1, and v6 (mouse). Cells were maintained feeder-free on 3% Reduced Growth Factor GelTrex™ (Life Technologies) for at least one passage in media (mTeSR1 for hPSCs; […] supplement+2i in for mESCs; hESC conditioned media (CM)+leukemia inhibitory factor (LIF)+dox for hLR5 iPSCs) and dissociated with Accutase® or TrypLE™. LD-iPSCs were derived from native hLR5 iPSCs by withdrawing LIF and doxycycline and substituting with FGF2. For thin gel sandwich colonies, cells were plated at 60,000 (primed) or 30,000 (native) cells/well of a 24-well plate or 4-well chamber slide pre-coated with GelTrex™ in media supplemented with 10 μM Rho-kinase inhibitor Y27632 (StemGent). The following day the media was replaced with 500 μL 1.5% GelTrex™ in mTeSR1. Media was changed after 24 hours. […]
For fluorescence intensity quantifications, images were taken in a single imaging session and at identical exposures and processed identically. The number of cavitated colonies (ellipsoid with lumen) versus flat colonies (non-ellipsoid or without a lumen) was scored manually in phase contrast images of living cells, in which lumens were discerned more easily than in fixed samples. For apoptosis, cleaved caspase-3 expression was scored manually, confirmed by nuclear condensation, and divided by the total number of nuclei per wide-field epifluorescent image. […] For each colony, the summed ZO-1 expressing area was expressed as a percentage of the total surface area and then averaged. To quantify intensities, line scans of equal length were drawn through randomly selected structures imaged with identical exposures to obtain raw fluorescence values in NIS Elements software (Nikon). […] For CHIR-induced differentiation, […] individual cells were identified in low-magnification immunofluorescence images using Cell Profiler 2.0 and fluorescence intensities were measured automatically. […] Immunoblots were quantified using the ImageJ Gel Analyzer. […]

tubular organoids = test: Transport of fluorescent cargoes in tubular organoids
Protocol: (§1) To test permeability, media was supplemented with 20 mM HEPES plus Lucifer Yellow™ carbohydrazide potassium salt (Invitrogen, 38 μM) and Rhodamine-8 isothiocyanate dextran (Sigma, 0.5 μM), and imaged by confocal microscopy. For microinjection, 5 μM rhodamine-conjugated dextran solution in mTeSR1 was diluted 1:1 with Phenol Red Solution (0.5%, Sigma) for visualization. 2 nl was microinjected via a pulled glass capillary microneedle on a Nanoject-2 micromanipulator, and monitored in real-time by wide-field epifluorescence. For TEER, 50,000 hPSCs were plated on 24-well transwell plates (Corning) pre-coated with dilute […]™. […] TEER was measured using an EVOM 2™ device (World Precision Instruments).
as §1, with “Rhodamine-B” for “Rhodamine-8”, “0.5” for “0.5 μM),”, “5” for “5 μM”

hPSCs = test: BRY immunofluorescence in hPSC cultures treated with CHIR in mTeSR1; details: 5˜M CHIR, 3D versus 2D cultures plated side-by-side
Source text: FIG. 2. Cavitated spheroids represent epiblast. (a) Schematic of serial passaging experiment. (b) Representative brightfield images of hPSCs in 3D cultures which were dissociated (colored frames) and passaged (matching colored arrows). Dashed arrows represent serial passages in the 3D condition. […] (c) Hematoxylin and eosin-stained sections of teratomas generated from hPSC serial 3D passages p3, p6, and p9 showing pigmented epithelium (ectoderm), cartilage (mesoderm), and glandular epithelium (endoderm). (d) Cell number (average of duplicate counts for each time point, or AVG of all time points) in 2D and 3D cultures 72 hours after plating. […] (h) Morphology and (i) quantification (n=3) of hPSC colonies cultured in mTeSR1 plus CHIR, compared to controls in mTeSR1 alone. […]
For fluorescence intensity quantifications, images were taken in a single imaging session and at identical exposures and processed identically. The number of cavitated colonies (ellipsoid with lumen) versus flat colonies (non-ellipsoid or without a lumen) was scored manually in phase contrast images of living cells, in which lumens were discerned more easily than in fixed samples. For apoptosis, cleaved caspase-3 expression was scored manually, confirmed by nuclear condensation, and divided by the total number of nuclei per wide-field epifluorescent image. […] Immunoblots were quantified using the ImageJ Gel Analyzer. […]

epiblast spheroids = test: Epiblast spheroids treated with titrations of cisplatin and gentamicin (KIM-1, toxicity)
Source text: FIG. 20. […] Scale bars, 50 μm.
(§2) FIG. 27. […] (a) Co-localization of KIM-1 antibody AKG7 with LTL or (b) with a second KIM-1 antibody (KIMlab2). […] (e) Phase contrast time course of tubules in culture. After 120 days of culture (d120), tubules were fixed and stained for LTL. (f) Whole well of a 96-well plate showing kidney organoids. Scale bars, 50 μm. Error bars, s.e.m.

kidney organoids = test: KIM-1 induction in kidney organoids treated with nephrotoxic drugs
Source text: as §2

protamine sulfate [PS] was tested, and the 3D cavity formation (hPSC spheroids; 8 μg/ml protamine sulfate) was “strongly inhibited 3D cavity formation” and the podocalyxin localization (hPSC spheroids; 8 μg/ml protamine sulfate) was “mislocalization of podocalyxin to dispersed patches”.

`O=C(O)CN(CCN(CC(=O)O)CC(=O)O)CC(=O)O` [EDTA] was tested, and the “luminal RD signal intensity in loaded organoids” value (tubular organoids; 0.5 mM EDTA for one hour) was “decreased”.

`Cc1c[nH]c(-c2cnc(NCCNc3ccc(C#N)cn3)nc2-c2ccc(Cl)cc2Cl)n1` [CHIR] was tested, and the BRY expression (hPSCs) was “induced higher levels of BRY expression in 3D cultures than in 2D cultures” and the spheroid formation (hPSC spheroids; CHIR added at the time of sandwiching, in mTeSR1) was “inhibited spheroid formation in a dose-dependent manner”.

In the case of `C/C1=C/C(=O)O[C@@H]2C[C@@H](CC[C@H](C)/C=C\CC1)O[C@@](O)([C@@H]1CSC(=O)N1)C2` [latrunculin (Lat)B, Latrunculin B], the “effect on RD accumulation in tubular organoids” value (tubular organoids; co-incubation, 2 μM LatB) is reported as “significantly reduced RD accumulation”.

gentamicin was tested, and the “sensitivity of epiblast spheroids to drug” value (epiblast spheroids) was “exhibited dose-dependent sensitivity”, the “KIM-1 upregulation in epiblast spheroids” value (epiblast spheroids; any dose including 5 mM gentamicin) was “did not upregulate KIM-1; also recorded: No KIM-1 expression is observed” and the “KIM-1 expression in organoid tubules” value (kidney organoids; increasing concentrations, 36-48 hours, immunofluorescence) was “expressed apical kidney injury molecule-1 (KIM-1); also recorded: observed at moderate, sub-toxic doses”. For the same molecule, the “concentration sufficient to induce KIM-1 in kidney organoids” value (kidney organoids; kidney organoids) was ~5000 µM.
